According to patent publication US9045454B2, “Bicyclic pyrrole derivatives useful as agonists of GPR120” (Janssen Pharmaceutica NV, priority 2013, dated 2015):

Tested on: C57bl/6J Mice
Assay: GPR120 C57bl6 Mouse IPGTT
Type: in vivo
Settings: 30.0 mg/kg, dosed 30 minutes prior to glucose (IP 1.5 g/kg)
Experimental: Male, C57bl/6J Mice were ordered in at 8 weeks of age from Jackson Labs. Individual mice weighed anywhere in the range of 25-30 grams on study day. The mice were fasted, with removal of food occurring at 7 am on the morning of the study. Animals were moved into the room at 10:00 am, to give them time to acclimate. Glucose (insulin syringes) was drawn up either the night before or the morning of the study. Glucose was dosed (IP) at 1.5 g/kg at 7.5 ml/kg (20% glucose straight TEKNOVA, 250 ml sterile bottle w/ catalogue number G0525). Test compounds were kept spinning and were only drawn into the syringes prior to study commencement. Animals were bled via tail snip to determine basal glucose levels prior to dosing of treatments. An Ascensia BREEZE Blood Glucose Monitoring System by Bayer (using unique 10-test disks) was used for determining glucose levels. The bleeds started at approximately 12:45 pm and dosing started, at 1-minute intervals, immediately after. All groups were dosed 30 minutes prior to glucose administration at a dose volume of 10 ml/kg (the dose volume was calculated separately for each individual animal). Thirty minutes after the first dose animals were bled again for a second baseline, or T=0, and immediately dosed with glucose via an i.p. injection. The exact dose volume for glucose was also calculated separately for each individual animal. […]

For `Cc1c(CCC(=O)O)ccc(OCc2cccn2-c2ccc(Cl)cc2)c1C` [Compound 1, 3-(4-{[1-(4-Chlorophenyl)-1H-pyrrol-2-yl]methoxy}-2,3-dimethylphenyl)propanoic acid], the “GPR120 C57bl6 Mouse IPGTT Results” value was “not different”.
